Measurements taken from US11725015B2, “Macrocyclic compound and uses thereof” (President and Fellows of Harvard College, priority 2017, dated 2023).

Legend:
[1] = tested on: HSC-2-Luc orthotopic transplantation (tongue); experiment: HSC-2 orthotopic transplantation mouse model; type: in vivo, mice; conditions: Q7D×3
[2] = not only in vitro but also in vivo; cited from earlier work
[3] = various in vivo models; cited from earlier work
[4] = in comparison with Halichondrin B; cited from earlier work

N.N.[Cl][Pt][Cl] [Cisplatin, cisplatin, reference compound]
ILS (%) ([1]; 5 mg/kg intravenously + cetuximab 5 mg/kg): 150% | ILS (%) ([1]; 5 mg/kg intravenously, without cetuximab): 0%

C=C1C[C@@H]2CC[C@@]34C[C@H]5O[C@H]6[C@@H](O3)[C@H]3O[C@H](CC[C@@H]3O[C@H]6[C@H]5O4)CC(=O)O[C@@H]3[C@@H](C)[C@@H]4O[C@@H]5C[C@]6(CC7O[C@@]8(C[C@H](C)C7O6)C[C@H](C)[C@@H]6O[C@H](CC(=O)O)[C@H](O)C[C@@H]6O8)O[C@@H]5CC4O[C@H]3C[C@H]3O[C@@H](CC[C@@H]1O2)C[C@@H](C)C3=C (some centres unmarked) [Norhalichondrin B]
anti-tumor activity compared with Halichondrin B [2]: much weaker than Halichondrin B

C=C1C[C@@H]2CC[C@@]34C[C@@]5(O)O[C@H]6[C@@H](O3)[C@H]3O[C@H](CC[C@@H]3O[C@H]6[C@H]5O4)CC(=O)O[C@@H]3[C@@H](C)[C@@H]4O[C@@H]5C[C@]6(C[C@@H]7O[C@]8(C[C@H](C)[C@@H]9O[C@H]([C@@H](O)C[C@@H](O)CO)C[C@@H]9O8)C[C@H](C)[C@@H]7O6)O[C@@H]5C[C@@H]4O[C@H]3C[C@H]3O[C@@H](CC[C@@H]1O2)C[C@@H](C)C3=C [Halichondrin C]
activity in vivo [3]: active in various in vivo models | stability in aqueous solution [4]: unstable in aqueous solution
